Assay results as given in patent US20110166132A1, “Gamma Secretase Modulators” (Amgen Inc., priority 2007, published 2011).

Target: T1, gamma secretase (Homo sapiens, UniProt P49768)
T1 construct: HEK293 cells stably expressing full length Amyloid Precursor Protein (APP); endogenous in cells; host or cells: HEK 293 cells stably expressing full length APP
Test: GSM cell-based assay: Aβ 42 inhibition or reduction in HEK 293 cells over-expressing APP (sandwich ELISA)
Conditions: approximate IC50; HEK293 cells stably expressing full length APP, 24 hours incubation, 10-point dose response starting at 10 μM
Text: GSM cell-based assays were designed to measure the modulation of Aβ 42 from HEK 293 cells over-expressing APP.
Three simultaneous cell-based assays, namely Aβ 42 inhibition or reduction, Aβ 40 inhibition or reduction and a measurement of cell viability of the cells from which the Aβ 42/40 readout was obtained, together gave an interpretation of gamma secretase modulation (GSM). The assays measure Aβ 42 and Ab 40 from conditioned medium of test compound treated HEK 293 cells.
HEK293 cells stably expressing full length Amyloid Precursor Protein (APP) were plated at a density of 100K cells/well in 96 well plates (Costar). The cells were cultivated for 6 hours at 37° C. and 5% CO2 in DMEM supplemented with 10% FBS. The test compounds were then added to cells in 10-point dose response concentrations with the starting concentration being 10 μM. The compounds were diluted from stock solutions in DMSO and the final DMSO concentration of the test compounds on cells was 0.1%. After 24 hours of incubation with the test compounds the supernatant conditioned media was collected and the Aβ 42, Aβ 40 levels were determined using a sandwich ELISA. A cell viability test (CellTiter-Blue Cell Viability assay, Promega) on the cells from which the conditioned medium was harvested for Aβ 42 or Aβ 40 readouts gave an indication of cell survivability as a possible reason for false positive Aβ 42 or 40 reduction or inhibition readout. The IC50 of the compound (for either Aβ 42 or Aβ 40) was calculated from the percent of control or percent inhibition of Aβ 42 or Aβ 40 as a function of the concentration of the test compound.
The sandwich ELISA to detect Aβ 42 or Aβ 40 was performed in 96 well microtiter plates, which were pre-treated with goat anti-rabbit IgG (Pierce). The capture and detecting antibody pair that were used to detect Aβ 42 and Aβ 40 from cell supernatants were rabbit monoclonal Antibody 42 (RabMAb 42) and affinity purified polyclonal Antibody 40 pAB40 (Biosource) as capture antibodies and biotinylated 6E10 (Signet Labs Inc.) as detection antibody. The optimal concentration for RabMAb 42 was 1 μg/ml in Superblock/TBS (Pierce) that was supplemented with 0.05% Tween 20 (Sigma). The optimal concentration for the pAb40 antibody was 3 μg/ml in Superblock/TBS (Pierce) that was supplemented with 0.05% Tween 20 (Sigma). Optimal concentration for the detection antibody 6E10-biotinylated was 0.5 μg/ml in Superblock/TBS (Pierce) that had been supplemented with 2% normal goat serum and 2% normal mouse serum.
Cellular supernatants were incubated with the capture antibody for 16-20 hours at 4° C., followed by 3 wash steps in TBS-tween (0.05%). The detecting antibody incubation was for 3 hours at 4° C., again followed by the wash steps as described previously. The final readout of the ELISA is Time-Resolved Fluorescence (counts per minute) using Delfia reagents Streptavidin-Europium and Enhancement solutions (Perkin Elmer) and the EnVision Multilabel plate reader (Perkin Elmer).

Structure (SMILES) | IC50
Cc1cc(-c2ccc(NC(=O)C(CCF)c3cccc(Br)c3)cc2)ccn1 (centres unmarked) [Cpd 129, 2-(3-bromophenyl)-4-fluoro-N-(4-(2-methyl-4-pyridinyl)phenyl)butanamide] | > 10000 nM
Cc1cc(-c2ccc(NC(=O)CC3CCCC3)cc2)ccn1 [Cpd 558, 2-cyclopentyl-N-(4-(2-methyl-4-pyridinyl)-phenyl)acetamide] | > 10000 nM
COc1ncc(-c2cccc([C@@H](C)C(=O)Nc3ccc(-c4ccnc(C)c4)cc3)c2)cn1 [Cpd 502, (2R)-2-(3-(2-methoxy-5-pyrimidinyl)-phenyl)-N-(4-(2-methyl-4-pyridinyl)-phenyl)propanamide] | > 10000 nM
Cc1cc(-c2ccc(NC(=O)C(C)c3cccc(Nc4ccccc4)c3)cc2)ccn1 (centres unmarked) [Cpd 165, N-(4-(2-methyl-4-pyridinyl)phenyl)-2-(3-(phenylamino)phenyl)propanamide] | 1160 nM
Cc1cc(-c2ccc(NC(=O)Cc3ccccc3OCc3ccccc3)cc2)ccn1 [Cpd 113, 2-(2-(benzyloxy)phenyl)-N-(4-(2-methyl-4-pyridinyl)phenyl)acetamide] | > 10000 nM
Cc1cccc(C(C(=O)Nc2ccc(-c3ccnc(C)c3)cc2)C(C)C)c1 (centres unmarked) [Cpd 338, 3-methyl-2-(3-methylphenyl)-N-(4-(2-methyl-4-pyridinyl)phenyl)butanamide] | 1350 nM
COC1CCCC(C(=O)Nc2ccc(-c3ccnc(C)c3)cc2)C1 (centres unmarked) [Cpd 35] | 4280 nM
Cc1cc(-c2ccc(NC(=O)c3ccc(-c4ccccc4)cc3)cc2)ccn1 [Cpd 280] | > 10000 nM
Cc1cc(-c2ccc(NC(=O)c3cn4cc(Cl)ccc4n3)cc2)ccn1 [Cpd 300] | > 10000 nM
Cc1cc(-c2ccc(NC(=O)C(C)c3cccc(Br)c3)cc2C#N)ccn1 (centres unmarked) [Cpd 460, 2-(3-bromophenyl)-N-(3-cyano-4-(2-methyl-4-pyridinyl)phenyl)propanamide] | 5760 nM
Cc1cc(-c2ccc(NC(=O)c3cccc(N(C)C)c3)cc2)ccn1 [Cpd 46] | > 10000 nM
Cc1cc(-c2ccc(NC(=O)C3CCN(Cc4ccccc4)CC3)cc2)ccn1 [Cpd 312] | > 10000 nM
Cc1cc(-c2ccc(NC(=O)Cc3ccc(OC(F)(F)F)cc3)cc2)ccn1 [Cpd 110, N-(4-(2-methyl-4-pyridinyl)phenyl)-2-(4-(trifluoromethoxy)phenyl)acetamide] | 3270 nM
Cc1cc(-c2ccc(NC(=O)C3CC34CCC4)cc2)ccn1 (centres unmarked) [Cpd 186] | > 10000 nM
Cc1cc(-c2ccc(NC(=O)C(C)(C)c3ccc(Cl)cc3)cc2)ccn1 [Cpd 48, 2-(4-chlorophenyl)-2-methyl-N-(4-(2-methyl-4-pyridinyl)phenyl)propanamide] | > 10000 nM
Cc1cc(-c2ccc(NC(=O)Cc3cccc(C#N)c3)cc2)ccn1 [Cpd 321, 2-(3-cyanophenyl)-N-(4-(2-methyl-4-pyridinyl)phenyl)acetamide] | > 10000 nM
CC[C@H](C(=O)Nc1ccc(-c2ccnc(C)c2)cc1)c1ccccc1 [Cpd 345, (2S)-N-(4-(2-methyl-4-pyridinyl)phenyl)-2-phenylbutanamide] | 1870 nM
Cc1cc(-c2ccc(NC(=O)C(C)c3ccc4c(c3)CCN4)cc2)ccn1 (centres unmarked) [Cpd 497, 2-(2,3-dihydro-1H-indol-5-yl)-N-(4-(2-methyl-4-pyridinyl)phenyl)propanamide] | > 10000 nM
Cc1cc(-c2ccc(NC(=O)Cc3c(C)noc3C)cc2)ccn1 [Cpd 89, 2-(3,5-dimethyl-4-isoxazolyl)-N-(4-(2-methyl-4-pyridinyl)phenyl)acetamide] | > 10000 nM
Cc1cc(-c2ccc(NC(=O)C(C)c3cccc(C4CC4)c3)cc2)ccn1 (centres unmarked) [Cpd 524, 2-(3-cyclopropylphenyl)-N-(4-(2-methyl-4-pyridinyl)phenyl)propanamide] | 1200 nM
Cc1cc(-c2ccc(NC(=O)Cc3ccc(C)s3)cc2)ccn1 [Cpd 38, N-(4-(2-methyl-4-pyridinyl)phenyl)-2-(5-methyl-2-thiophenyl)acetamid] | 2370 nM
Cc1cc(-c2ccc(NC(=O)C(CC(C)C)C3CCOCC3)cc2)ccn1 (centres unmarked) [Cpd 173] | > 10000 nM
CCCC(C(=O)Nc1ccc(-c2ccnc(C)c2)cc1)c1ccccc1 (centres unmarked) [Cpd 368, N-(4-(2-methyl-4-pyridinyl)phenyl)-2-phenylpentanamide] | 2650 nM
Cc1cc(-c2ccc(NC(=O)Cc3c(F)cccc3Cl)cc2)ccn1 [Cpd 106, 2-(2-chloro-6-fluorophenyl)-N-(4-(2-methyl-4-pyridinyl)phenyl)acetamide] | > 10000 nM
Cc1cc(-c2ccc(NC(=O)C(C)c3ccc(NCC4CC4)cc3)cc2)ccn1 (centres unmarked) [Cpd 171, 2-(4-((cyclopropylmethyl)amino)phenyl)-N-(4-(2-methyl-4-pyridinyl)phenyl)-propanamide] | 2480 nM
Cc1cc(-c2ccc(NC(=O)[C@@H](C)c3cc(C(F)(F)F)cc(C(F)(F)F)c3)cc2)ccn1 [Cpd 290, (2S)-2-(3,5-bis(trifluoromethyl)phenyl)-N-(4-(2-methyl-4-pyridinyl)phenyl)-propanamide] | > 10000 nM

Now those with a lower IC50, led by results:

IC50 | Structure (SMILES)
827 nM | Cc1cc(-c2ccc(NC(=O)C(C)c3cccc(-c4csc(N5CCOCC5)n4)c3)cc2)ccn1 (centres unmarked) [Cpd 183]
129 nM | Cc1cc(-c2ccc(NC(=O)[C@@H](CC(C)C)c3cccc(-c4ccc(N5CCOCC5)cc4)c3)cc2)ccn1 [Cpd 127, (2S)-4-methyl-N-(4-(2-methyl-4-pyridinyl)phenyl)-2-(4′-(4-morpholinyl)-3-biphenylyl)pentanamide]
790 nM | Cc1cc(-c2ccc(NC(=O)Cc3cccc(Cl)c3)cc2)ccn1 [Cpd 8, 2-(3-chlorophenyl)-N-(4-(2-methyl-4-pyridinyl)phenyl)acetamide]
191 nM | Cc1cc(-c2ccc(NC(=O)[C@H](CC(C)C)c3ccc(-c4ccc(N5CCOCC5)cc4)cc3)cc2)ccn1 [Cpd 131, (2R)-4-methyl-N-(4-(2-methyl-4-pyridinyl)-phenyl)-2-(4′-(4-morpholinyl)-4-biphenylyl)pentanamide]
154 nM | Cc1cc(-c2ccc(NC(=O)C(C)c3cccc(-c4ccc(N5CCOCC5)nc4)c3)cc2)ccn1 (centres unmarked) [Cpd 135, N-(4-(2-methyl-4-pyridinyl)phenyl)-2-(3-(6-(4-morpholinyl)-3-pyridinyl)phenyl)-propanamide]
1050 nM | CSc1cccc(C(C)C(=O)Nc2ccc(-c3ccnc(C)c3)cc2)c1 (centres unmarked) [Cpd 142, N-(4-(2-methyl-4-pyridinyl)phenyl)-2-(3-(methylsulfanyl)phenyl)propanamide]
911 nM | COc1cc(NC(=O)[C@H](C)c2cccc(Br)c2)ccc1-c1ccnc(C)c1 [Cpd 461, (2R)-2-(3-bromophenyl)-N-(3-methoxy-4-(2-methyl-4-pyridinyl)phenyl)propanamide]
874 nM | Cc1cc(-c2ccc(NC(=O)c3cccc(-c4ccccc4)c3)cc2)ccn1 [Cpd 386]
1090 nM | Cc1cc(-c2ccc(NC(=O)C3CC3(C)C)cc2)ccn1 (centres unmarked) [Cpd 184]
908 nM | Cc1cc(-c2ccc(NC(=O)C(C)n3cc(-c4ccccc4)c(C)n3)cc2)ccn1 (centres unmarked) [Cpd 455, 2-(3-methyl-4-phenyl-1H-pyrazol-1-yl)-N-(4-(2-methyl-4-pyridinyl)phenyl)-propanamide]
557 nM | Cc1cc(-c2ccc(NC(=O)Cc3ccc(-c4ccccc4)cc3)cc2)ccn1 [Cpd 19, 2-(4-biphenylyl)-N-(4-(2-methyl-4-pyridinyl)phenyl)acetamide]
256 nM | Cc1cc(-c2ccc(NC(=O)C(C)c3cccc(-c4ccc(C(=O)N(C)C)cc4)c3)cc2)ccn1 (centres unmarked) [Cpd 157]
328 nM | Cc1cc(-c2ccc(NC(=O)[C@H](C)c3ccc4c(c3)[nH]c3ccc(Cl)cc34)cc2)ccn1 [Cpd 122, (2R)-2-(6-chloro-9H-carbazol-2-yl)-N-(4-(2-methyl-4-pyridinyl)phenyl)propanamide]
582 nM | Cc1cc(-c2ccc(NC(=O)C(C)n3cnc(-c4ccccc4)c3)cc2)ccn1 (centres unmarked) [Cpd 151, N-(4-(2-methyl-4-pyridinyl)phenyl)-2-(4-phenyl-1H-imidazol-1-yl)propanamide]
256 nM | Cc1cc(-c2ccc(NC(=O)[C@H](C)c3cc(C(F)(F)F)cc(C(F)(F)F)c3)cc2)ccn1 [Cpd 1, (2R)-2-(3,5-bis(trifluoromethyl)phenyl)-N-(4-(2-methyl-4-pyridinyl)phenyl)-propanamide]
